Results from PubChem BioAssay (NCI).
Values joined by “and” are separate entries in the source; they are usually repeats but may differ in a detail not shown here. Equal values may be shown once.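 Briefly, cells in 96-well plates were exposed to five compound concentrations for 48 h, and endpoints were estimated by linear interpolation. GI50 = concentration required for 50% inhibition of growth. The concentration for full growth arrest is given as TGI.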

Test system: MDA-MB-468 breast
Assay: NCI anticancer screen, dose series, 48 h

Compound | GI50 | TGI
COc1cccc2c1C(=O)c1c(O)c3c(c(O)c1C2=O)C[C@@](O)(C(=O)CO)C[C@@H]3OC1CC(N)C(O)C(C)O1 (stereo partly specified) | 59.9 nM and 58.9 nM and 97.1 nM | 0.25 µM and 0.236 µM and 0.486 µM
COc1cc(C(=O)/C=C/c2c(-c3cccs3)nc3sc(C)cn23)cc(OC)c1OC | 2230 nM | 8.45 µM
COc1cc(Nc2cc(C)nc(N3CCN(c4ccnc5cc(Cl)ccc45)CC3)n2)cc(OC)c1 | 129 nM | 3.2 µM
O=C1OCC2=C1C(c1cccc(F)c1)c1cc3c(cc1N2CCO)CCC3 (stereo unspecified) | 37.1 nM | 1.09 µM
COC(=O)c1c2c(c[n+]([O-])c1C)C(=O)C=C(NCc1ccccc1)C2=O | 138 nM | 0.371 µM
CCCCCCCCCCCCCCCCCCOP(=O)([O-])OC1CC[N+](C)(C)CC1 | 3740 nM | > 10 µM
CC1=C(SCCC(=O)OCC(=O)NCCC[Te]c2ccccc2)C(=O)c2ccccc2C1=O | 1810 nM | 3.61 µM
CC(C)(C)c1[nH]nc2c1C(c1cc3ccccc3[nH]c1=O)Nc1cc(C(=O)Nc3ccc(Cl)cc3)ccc1N2 (stereo unspecified) | 1360 nM | 3.08 µM
CCOC(=O)c1ccc2c(c1)c1c(C)c3ccncc3c(C)c1n2C | 1160 nM | 2.83 µM
COc1ccc2c(c1)N(CCO)C1=C(C(=O)OC1)C2c1cc(OC)c(OC)c(OC)c1 (stereo unspecified) | 12.3 nM | 0.0405 µM
Nc1ccc2c(c1)Cc1cc(Cl)c(Cl)cc1-2 | 1360 nM | 86.4 µM
CCN1CCN(c2cc(C)nc(N(CCCNc3ccnc4cc(Cl)ccc34)Cc3cccs3)n2)CC1 | 1980 nM | 5.09 µM
COc1c(OCCCN2CCOCC2)ccc2c3n(c(=NC(=O)c4cnc(N)nc4)nc12)CCN3 | 21.2 nM and 27.9 nM and 38.9 nM | 229 nM [middle of 4 runs]
COc1ccc(C2=C(c3cn(C)c4ccccc34)C(=O)NC2=O)cc1 | 9840 nM | > 25 µM
Nc1nc2c(c3cnccc13)C(c1cccc(Br)c1)Cc1cnccc1-2 (stereo unspecified) | 257 nM | 0.808 µM
COc1cc(/C=C/C(=O)c2cc(OC)c(OC)c(OC)c2)ccc1Oc1nc2c(c(=O)n(C)c(=O)n2C)n1C | 1920 nM | 3.73 µM
O=C(N/N=C/c1ccc(Cl)s1)c1[nH]c2ccc(Br)cc2c1-c1ccccc1 | 286 nM | 4.2 µM
Cn1cc(C2=C(Sc3ccccc3)C(=O)NC2=O)c2ccccc21 | 4940 nM | 10.4 µM
CCCCCCCCCCCCC[N+](C)(C)Cc1ccccc1 | 213 nM | 0.852 µM
CC[C@]12C=CCN3CC[C@]4(C(=C(C(=O)OC)C1)Nc1cc(OC)c(OC(C)=O)cc14)[C@@H]32 | 428 nM | 20.2 µM
CCOC(=O)c1cc(C(=O)c2ccc(Cl)cc2)n2ccc(-c3cc[n+](CC(=O)c4ccc(OC)cc4)cc3)cc12 | 1840 nM | 3.75 µM

Compound | GI50 | TGI
CC1(C)CCC(S(=O)(=O)c2ccc3c(c2)/C(=N\O)c2cc(S(=O)(=O)N4CCN(c5ccc(F)cc5O)CC4)ccc2-3)CC1 | 37.1 nM | 0.134 µM
CC(C)=CC(=O)OCC(=O)O[C@@H]1C[C@]2(C(C)C)O[C@@]1(C)[C@@H]1CC[C@@H](C)[C@H]1[C@@H]2OC(=O)/C=C/c1ccccc1 | 11400 nM | > 82.7 µM
O=C1/C(=C\c2ccc(Br)cc2)CN(C(=O)c2ccccc2F)C/C1=C\c1ccc(Br)cc1 | 1690 nM | 3.69 µM
Cc1c(NC(=O)c2cc(C(N)=O)nc3cc(F)ccc23)c(C(F)(F)F)nn1Cc1ccc(C#N)cc1 | 6580 nM | > 71.9 µM
c1cc(N2CCCC2)c2nc(-c3[nH]ncc3Nc3ncnc4[nH]ccc34)[nH]c2c1 | 66.1 nM | 0.265 µM
C=C(C)[C@@H]1CC[C@]2(CNCCO)CC[C@]3(C)[C@H](CC[C@@H]4[C@@]5(C)CCC(N)[C@@](C)(CO)[C@@H]5CC[C@]43C)[C@@H]12 (stereo partly specified) | 1610 nM | 3.18 µM
COc1cc2c3c(n(CCCN4CCCCC4)c(=O)c2cc1OC)-c1cc2c(cc1C3=O)OCO2 | 1490 nM | 2.86 µM
Cc1ncn(-c2ccc(/C=N/Nc3ccnc4cc(Cl)ccc34)cc2)c1C | 1480 nM | 3 µM
Cc1cccc(NC(=O)c2sc3nc4c(cc3c2N)CCCC4)c1 | 1750 nM | 44.1 µM
Cc1cc(C)c(CNC(=O)c2cc(-c3ccc(CN4CCOCC4)cc3)cc3c2cnn3C2CCCC2)c(=O)[nH]1 | 13900 nM | 36.2 µM
CCN(CC)c1ccc(N=O)cc1 | 1720 nM | 4.39 µM
COc1cc(C2c3cc4c(cc3OC(N3CCCCC3)C2C)OCO4)cc(OC)c1OC (stereo unspecified) | 3660 nM | 30.3 µM
COc1ccc2c(CCC(c3ccccc3)c3ccccc3)c3[n+](cc2c1OC)CCc1cc2c(cc1-3)OCO2 |  | 0.228 µM
CC#Cc1nc2ccccc2c(=O)[nH]1 | 2360 nM | 6.04 µM
CC(C)(O)c1coc(S(=O)(=O)/N=C(\O)Nc2c3c(cc4c2CCC4)CCC3)c1 | > 100000 nM | > 100 µM
CC(=O)OCC1OC(OC2=C(CC=C(C)C)C(=O)c3ccccc3C2=O)C(OC(C)=O)C(OC(C)=O)C1OC(C)=O (stereo unspecified) | 1580 nM | 3.68 µM
O=C1NC(=NCCc2cccs2)S/C1=C\c1ccc2ncccc2c1 | 5530 nM | > 25 µM
CN(C)c1ccc2nc3ccc(=N)cc-3sc2c1 | 3520 nM | 13.8 µM
NC(=O)c1cccc(-n2ccc3cc(NC(=O)Nc4ccc(N5CCOCC5)c(C(F)(F)F)c4)ccc32)n1 | 2440 nM | 7.53 µM
CCOC(=O)c1c(NCC(=O)Nc2cccc([N+](=O)[O-])c2)sc(C(C)=O)c1C | 1850 nM | 4.53 µM
